Tests used:
[1] = system: FS, FVr and FVb fibroblasts; experiment: Demonstration of F actin (phalloidin-FITC) in fibroblasts cultured in lattice; format: cell-based; settings: lupeol 7 μg/ml, lattices cultured for 5 days
Procedure: Normal fibroblasts (FS), fibroblasts from a red or recent stretch mark (FVr) and fibroblasts from an older white stretch mark (FVb) were used in this study. The fibroblasts were cultured in the absence or in the presence of lupeol at a concentration of 7 μg/ml. Fibroblasts are large (100 μm) cells with a fusiform or star-shaped morphology. Their cytoplasm contains an assembly of protein filaments (intermediate filaments, microtubules, actin filaments) which constitute the framework, or cytoskeleton, thereof in close relationship with the plasma membrane. 10% of all cell proteins consist of actin, polymerized in the form of filaments and bundles, which are often described as stress fibers. Actin filaments contribute to the contractile activity of the fibroblast by generating isometric forces. Several types of actin exist, including polymerized fibrillar actin (F actin) and a smooth muscle actin (αSM actin). Lattices pulled over a nylon ring were cultured for 5 days in Petri dishes (Ø 50 mm). They were fixed with 3% paraformaldehyde in PBS for 20 min, and then rinsed with PBS. They were subsequently incubated with PBS+0.1% Triton X100 in order to permeabilize the membrane. […] They were mounted between slide and cover slip with a drop of Vectashield, and were then observed under a fluorescence microscope, under UV.

[2] = system: Normal fibroblasts (FS); experiment: Isometric forces developed by fibroblasts in lattice, normal fibroblasts; format: cell-based; settings: FS + lupeol 7 μg/ml, at 7 hours of culture; FS alone 3583 V±1076
Excerpt: (§1) Normal fibroblasts (FS), fibroblasts from a red or recent stretch mark (FVr) and fibroblasts from an older white stretch mark (FVb) were used in this study. Mechanical inhibition of the retraction of the collagen gel in which fibroblasts are embedded is reflected by the generation of a force, called “retraction force” or “isometric force”. The lattices develop in a culture dish that consists of 8 rectangular cells. Placed into each one are 2 flexible silicon slides, the lower parts of which consist of grids to which the lattice attaches when it polymerizes. The lattice develops between 2 slides so as to give a rectangular shape that is slightly shrunken at the center. This shape in conventional mechanics is referred to as a “diabolo” shape. These slides have, in their upper part, a strain gauge system made of gold deposited at their surface. Under the influence of the retraction force developed by the fibroblasts, the silicon slides distort. This is reflected by a variation in the value of electrical resistance of the stress gauge, measured by means of a Wheatstone bridge. This variation indicates the force developed within the lattice, measured in real time via a PC acquisition card and suitable software. The mixture for producing the lattices was poured into the rectangular cells of the culture dish. A gel formed in a few minutes at 37° C. […] The isometric forces were measured for 48 hours.

[3] = system: fibroblasts from an older white stretch mark (FVb); experiment: Isometric forces developed by fibroblasts in lattice, white stretch mark fibroblasts; format: cell-based; settings: FVb + lupeol 7 μg/ml, at 7 hours of culture; FVb alone 3999 V±881
Excerpt: as §1

[4] = system: fibroblasts from an older white stretch mark (FVb); experiment: Retraction of collagen lattice (free lattice), white stretch mark fibroblasts; format: cell-based
Procedure: (§2) Normal fibroblasts (FS), fibroblasts from a red or recent stretch mark (FVr) and fibroblasts from an older white stretch mark (FVb) were used in this study.
(§3) The fibroblasts were cultured in the absence or in the presence of lupeol at a concentration of 7 μg/ml.
(§4) The mechanism of retraction consists of the gathering up and rearranging of collagen by fibroblasts. The collagen polymerizes into fibrils to which the cells attach. The latter pull on the fibrils by virtue of their migratory movement, and thus reorganize the matrix. The diameter of the lattice is then decreased.
(§5) The mixture for producing lattices was poured into Petri dishes 50 mm in diameter. A gel formed in a few minutes at 37° C. The lattices were cultured with or without lupeol. The degree of retraction was determined by measuring the diameters of the lattices.

[5] = system: Normal fibroblasts (FS); experiment: Retraction of collagen lattice (free lattice), normal fibroblasts; format: cell-based
Procedure: as §2, §3, §4, §5

[6] = system: FS, FVr and FVb fibroblasts; experiment: Demonstration of αSM actin (immunolabeling) in fibroblasts cultured in lattice; format: cell-based; settings: lupeol 7 μg/ml, lattices cultured for 5 days
Procedure: Normal fibroblasts (FS), fibroblasts from a red or recent stretch mark (FVr) and fibroblasts from an older white stretch mark (FVb) were used in this study. The fibroblasts were cultured in the absence or in the presence of lupeol at a concentration of 7 μg/ml. Fibroblasts are large (100 μm) cells with a fusiform or star-shaped morphology. Their cytoplasm contains an assembly of protein filaments (intermediate filaments, microtubules, actin filaments) which constitute the framework, or cytoskeleton, thereof in close relationship with the plasma membrane. 10% of all cell proteins consist of actin, polymerized in the form of filaments and bundles, which are often described as stress fibers. Actin filaments contribute to the contractile activity of the fibroblast by generating isometric forces. Several types of actin exist, including polymerized fibrillar actin (F actin) and a smooth muscle actin (αSM actin). Lattices pulled over a nylon ring were cultured for 5 days in Petri dishes (Ø 50 mm). They were fixed with 3% paraformaldehyde in PBS for 20 min, and then rinsed with PBS. They were subsequently incubated with PBS+0.1% Triton X100 so as to permeabilize the membrane with respect to antibodies, and then with 3% H2O2 in order to eliminate endogenous peroxidases. […] was blocked with 3% BSA+10% sheep serum in PBS. […]

[7] = system: human skin fibroblasts; experiment: Cytotoxicity of test concentrations on fibroblasts in culture; format: cell-based
[8] = system: HSP47 heat shock protein; experiment: Western blotting, expression of the HSP47 protein in fibroblasts in culture; format: cell-based, human; settings: dose of 20 μg/ml, incubation time of 48 h
Procedure: This technique consists of: • separation of the various proteins on a polyacrylamide gel under denaturing conditions; • transfer of the proteins onto a specific membrane (PVDF membrane, sold by the company Biorad); • labeling of the protein of interest with a specific antibody (HSP47, Stressgen); • “colorimetric” visualization (Sigma Fast, BCPIP/NBT). Various nontoxic concentrations (5, 10 and 20 μg/ml) and several incubation times (24 and 48 hours) were tested.

[9] = system: gene encoding HSP47; experiment: cDNA microarray, expression of the gene encoding HSP47 in human skin fibroblasts; format: cell-based; settings: 4.5 μg/ml lupeol
Procedure: We used the “cDNA microarray” method for studying the effects of the product on the expression of the genes encoding structural and regulatory proteins of potential interest in skin physiology. Such an approach makes it possible to screen, in a single step, the effects of a product or of a treatment on gene expression in a given biological system and to obtain a signature of the effects of this treatment.
The product was applied to human skin fibroblasts cultured in MEM/M199 for 18 hours. The lupeol, in solution in ethanol was tested at the concentration of […], this concentration corresponds to a noncytotoxic dose.
The methodology used is that recommended by Clontech (Palo Alto, USA), and comprises: • a step consisting in extracting and purifying the total RNA; • a step consisting in purifying the messenger RNAs according to the AtlasPure protocol (Clontech); • labeling of the DNA probes with P^32 by reverse transcription; • purifying the label probes by exclusion column chromatography and verification of the quality and of the equivalence by liquid scintillation counting; and • hybridizing membranes (provided by the company Custom Atlas BIOAlternative) with the radiolabeled probes (68° C., overnight). Analysis of Results
The membranes were analyzed by direct quantification of the radioactivity of the spots using a Cyclone PhosphorImager (provided by the company Packard Instrument).
The results are expressed in relative units (RU, mean radioactivity of the points of the double spot corresponding to each gene, corrected for the background noise and for the differences in probe labeling intensity).
The results were analyzed case by case, label by label. Arbitrarily, the limit of significance was fixed at approximately +30% of the control for a stimulating effect, i.e. for an effect greater than 130%.

[10] = system: fibroblasts from a red or recent stretch mark (FVr); experiment: Retraction of collagen lattice (free lattice), red stretch mark fibroblasts; format: cell-based
Procedure: as §2, §3, §4, §5

[11] = system: fibroblasts from a red or recent stretch mark (FVr); experiment: Isometric forces developed by fibroblasts in lattice, red stretch mark fibroblasts; format: cell-based; settings: FVr + lupeol 7 μg/ml, at 7 hours of culture; FVr alone 5547 V±808
Excerpt: as §1

C=C(C)[C@@H]1CC[C@]2(C)CC[C@]3(C)[C@H](CC[C@@H]4[C@@]5(C)CC[C@H](O)C(C)(C)[C@@H]5CC[C@]43C)[C@@H]12 [lupeol, Lupeol]
F actin stress fibers and fibroblast morphology [1]: lose their F actin stress fibers and evolve toward a star-shaped form
isometric forces [2]: 1325 V
isometric forces [3]: 1365 V
Gel diameter ([4]; FVb + lupeol 7 μg/ml, FVb alone 2.9): 3.2
% decrease in retraction ([4]; FVb, lupeol 7 μg/ml, at D2): 10%
Gel diameter ([5]; FS + lupeol 7 μg/ml, FS alone 2.5): 3
% decrease in retraction ([5]; FS, lupeol 7 μg/ml, at D2): 20%
labeling for αSM actin [6]: weak labeling for αSM actin
cytotoxicity of the tested concentration ([7]; 4.5 μg, in solution in ethanol, human skin fibroblasts): noncytotoxic
toxicity of the tested concentrations ([7]; 5, 10 and 20 μg/ml, fibroblasts in culture): nontoxic
HSP47 production (Western blotting) [8]: stimulation of HSP47 production
HSP47 gene expression, % of the control ([9]; 18 hours, human skin fibroblasts): 129 % of the control
HSP47 gene expression, relative units (RU) ([9]; 18 hours, human skin fibroblasts, control cells 28.2 RU): 36.4 RU
regulation of the expression of the gene encoding HSP47 ([9]; incubation for 18 hours): positive regulation
Gel diameter ([10]; FVr + lupeol 7 μg/ml, FVr alone 3): 3.6
% decrease in retraction ([10]; FVr, lupeol 7 μg/ml, at D2): 20%
isometric forces [11]: 2488 V
